Source: patent US9365499B2, “9-aminomethyl substituted tetracycline compounds” (KBP Biosciences Co., Ltd., priority 2011, dated 2016)
In brackets after ≈: the same amount, converted by molar mass. Where two headings read alike, the source gives them in different places.

Assays:
Enterococcus faecalis = assay: antibacterial activity in vitro, agar dilution method; format: cell-based; conditions: Table 4
Source text: (§1) The antibacterial spectrum and in vitro antibacterial activity of the compound of the present invention
(§2) Experimental method: the agar dilution method, with reference to Clinical And Laboratory Standards Institute. Methods for Dilution Antimicrobial Susceptibility Tests for Bacteria That Grow Aerobically; Approved Standard-Seventh Edition. CLSI Document M7-A7. Vol 26, no. 2, Wayne, Pa.: Clinical and Laboratory Standards Institute, 2006.
(§3) Wherein MIC represents the minimum inhibitory concentration, MIC90 represents the 90% inhibitory concentration.

Staphylococcus aureus [1] = assay: as above; format: cell-based; conditions: for MIC90: Staphylococcus aureus, Table 5, MIC90 = 90% inhibitory concentration; for MIC: Table 10, Staphylococcus aureus of the thigh model
Source text: as §1, §2, §3

Streptococus agalactiae = assay: as above; format: cell-based; conditions: Table 4
Source text: as §1, §2, §3

[2] = test system: Streptococcus constellatus; assay: as above; format: cell-based; conditions: Table 5, MIC90 = 90% inhibitory concentration
Source text: as §1, §2, §3

[3] = test system: Acinetobacter calcoaceticus; assay: as above; format: cell-based; conditions: Table 4
Source text: as §1, §2, §3

Acinetobacter baumannii = assay: as above; format: cell-based; conditions: for MIC90: Table 5, MIC90 = 90% inhibitory concentration
Source text: as §1, §2, §3

[4] = test system: Methicillin-resistant Staphylococcus aureus (MRSA); assay: as above; format: cell-based; conditions: for MIC90: Table 5, MIC90 = 90% inhibitory concentration
Source text: as §1, §2, §3

Klebsiella pneumoniae = assay: as above; format: cell-based
Source text: as §1, §2, §3

Escherichia coli = assay: as above; format: cell-based
Source text: as §1, §2, §3

Hemophilus influenzae = assay: as above; format: cell-based; conditions: Haemophilus influenzae; Table 5; MIC90 = 90% inhibitory concentration
Source text: as §1, §2, §3

in vivo = assay: in vivo; parameters: species or system male SD rats; conditions: male, SD, rat, 5 mg/kg
Protocol: Test animals: male SD rats, weighing 180-280 g, purchased from Beijing Vital River Laboratory Animal Technology Co., Ltd.; animal Certificate of Conformity: SCXK (Beijing) 2006-0009. Six rats were tested for each compound. the compounds of the present invention, prepared in accordance with the methods of above Examples, dissolved in physiological saline. tigecycline, dissolved in physiological saline. Administration of the compounds of the present invention: intravenous bolus injection (iv), dose: 5 mg/kg, administrating volume: 5 mL/kg; gavage (po), dose: 5 mg/kg, administrating volume: 5 mL/kg. Administration of tigecycline: gavage (po), dose: 10 mg/kg, administrating volume: 5 mL/kg. Prior to administration help but water fasting for 16 hours, 4 hours after administration to food. Compound 9: iv blood sampling time point: denoted by 0 min before administration, 5 min, 15 min, 30 min, 1 […] after administration; po blood sampling time point: denoted by 0 min before administration, 5 min, 15 min, 30 min, 1 […] after administration; Compound 20: iv blood sampling time point: 5 min, 15 min, 30 min, 1 […] after administration; po blood sampling time point: 10 min, 30 min, 1 […] after administration; Compound 23: iv blood sampling time point: denoted by 0 min before administration, 5 min, 15 min, 30 min, 1 […] after administration; po blood sampling time point: denoted by 0 min before administration, 5 min, 15 min, 30 min, 1 […] after administration; Tigecycline: iv blood sampling time point: 5 min, 15 min, 30 min, 1 h, 2 h, 4 h, 6 h, 8 h after administration; po blood sampling time point: 10 min, 30 min, 1 […] after administration. Each time point is taken around 100 μl whole blood and placed in a heparinized tube, centrifugated at 8000 rpm/min at 4° C. for 6 minutes in a low-temperature high-speed centrifuge to separate plasma, the resulting plasma was frozen at -80° C. refrigerator. Plasma samples analysis: 20 μl of plasma was taken and added 200 μl of internal standard solution, subjected to vortex for 3 minutes, then to centrifugation at 12,000 rpm/min for 5 minutes. 100 μl of supernatant was taken and analyzed using LC-MS/MS. Formula Absolute Bioavailability F%=[AUC](po)×Dose(iv)/[AUC](iv)×Dose(po)

Staphylococcus aureus [5] = assay: bactericidal effects in vivo in neutropenic mouse thigh model with Staphylococcus aureus infection; parameters: species or system mice; conditions: for change values (24 h vs blank group mean 0 h) / log10 CFU for each thigh, mean ± standard deviations (24 h): 2 dose times, subcutaneous
Protocol: Bactericidal Effects of the Present Compounds In Vivo in Mouse Thigh Model with Staphylococcus aureus Infection SPF grade CD-1 (ICR) female mice housed in SPF environment, weighing 25±2 g, purchased from Beijing Vital River Laboratory Animal Technology Co., Ltd., licensed […] No: SCXK (Beijing) 2006-0009. Staphylococcus aureus: purchased from Shanghai Renji Hospital. Four days before bacterial infection, intraperitoneal (ip) injection of cyclophosphamide 150 mg/kg; 1 day before bacterial infection, intraperitoneal (ip) injection of cyclophosphamide 100 mg/kg; Picked fresh Staphylococcus aureus single colonies which were plate cultured for 18 h, and inoculated into broth and cultured at 35° C. for 18 h. The bacterial suspension was diluted with broth, and 0.5 McFarland turbidity standard indicator bacteria suspension was prepared with a McFarland turbiditor, 10-fold diluted with broth and injected into the thigh muscle of mice in an amount of 0.1 mL for each thigh. The concentration of the bacteria suspension was about 10^6-10^7 CFU/ml. The inoculum concentration was determined by an agar-plate count method. Blank Group: the animals were sacrificed by dislocation at 2 h (recorded as 0 h) after the inoculation of bacteria. Solvent group: The first administration time was set at 2 h (denoted as 0 h) after the animals were infected with bacteria, the solvent was subcutaneously administrated, the animals were sacrificed by dislocation at 24 h after the administration. Treatment group: The first administration time was set at 2 h (denoted as 0 h). […] The thigh muscle tissue was separated from the sacrificed animals, and 5 mL of sodium chloride injection was added, homogenated. The homogenate obtained were diluted series, taken 0.05 mL and inoculated to agar plates, two plates were inoculated in parallel for each gradient bacterial suspension, and incubated at 35° C. for 18 h. Observe the growth of the colonies on each plate, and select the plates with the number of colonies between 30-300 for colony count. The number of colonies was recorded as n1, n2. N represents the diluted fold. The number of colonies (units CFU) for each thigh was calculated according to the formula of “(n1+n2)/2/0.05×5×N”. A logarithm to the base 10 for the number of colonies of each thigh was calculated to obtain log10 CFU value for each thigh.

[6] = test system: Methicillin-resistant Staphycoccus epidermidis (MRSE); assay: antibacterial activity in vitro, agar dilution method; format: cell-based; conditions: Staphylococcus epidermidis, Table 2
Source text: as §1, §2, §3

Streptococcus pyogenes = assay: as above; format: cell-based; conditions: Table 2
Source text: as §1, §2, §3

[7] = Table 4, agar dilution, read-out: antibacterial activity MIC, Acinetobacter baumannii

| MIC (Enterococcus faecalis) | MIC90 (Staphylococcus aureus [1]) | MIC (Staphylococcus aureus [1]) | MIC (Streptococus agalactiae) | MIC90 [2] | MIC [3] | MIC (Acinetobacter baumannii; [7]) | MIC90 (Acinetobacter baumannii) | MIC ([4]; Table 4, agar dilution) | MIC90 [4] | MIC (Klebsiella pneumoniae; Table 4) | MIC (Escherichia coli; Table 4) | MIC90 (Hemophilus influenzae) | SMILES | change values (24 h vs blank group mean 0 h) (Staphylococcus aureus [5]; 2 mg/kg/day) | log10 CFU for each thigh, mean ± standard deviations (24 h) (Staphylococcus aureus [5]; 2 mg/kg/day) | bactericidal effect against Staphylococcus aureus in vivo in mice (Staphylococcus aureus [5]; 6 mg/kg/day) | change values (24 h vs blank group mean 0 h) (Staphylococcus aureus [5]; 6 mg/kg/day) | log10 CFU for each thigh, mean ± standard deviations (24 h) (Staphylococcus aureus [5]; 6 mg/kg/day) | change values (24 h vs blank group mean 0 h) (Staphylococcus aureus [5]; 18 mg/kg/day) | log10 CFU for each thigh, mean ± standard deviations (24 h) (Staphylococcus aureus [5]; 18 mg/kg/day) | further results |
| --- | --- | --- | --- | --- | --- | --- | --- | --- | --- | --- | --- | --- | --- | --- | --- | --- | --- | --- | --- | --- | --- |
| 0.06 µg/mL (≈ 0.109 µM) | 0.25 µg/mL (≈ 0.452 µM) | 0.25 µg/mL (≈ 0.452 µM) | 0.06 µg/mL (≈ 0.109 µM) | 0.125 µg/mL (≈ 0.226 µM) | 0.125 µg/mL (≈ 0.226 µM) | 1 µg/mL (≈ 1.81 µM) | 2 µg/mL (≈ 3.62 µM) | 0.25 µg/mL (≈ 0.452 µM) | 0.5 µg/mL (≈ 0.905 µM) | 1 µg/mL (≈ 1.81 µM) | 0.25 µg/mL (≈ 0.452 µM) | 0.5 µg/mL (≈ 0.905 µM) | CN(C)c1cc(CN2CC3CC3C2)c(O)c2c1C[C@H]1C[C@H]3[C@H](N(C)C)C(O)=C(C(N)=O)C(=O)[C@@]3(O)C(O)=C1C2=O (stereo partly drawn) [Compound 23, (4S,4aS,5aR,12aS)-9-(3-azabicyclo[3.1.0]hexan-3-ylmethyl)-4,7-bis(dimethylamino)-3,10,12,12a-tetrahydroxy-1,11-dioxo-1,4,4a,5,5a,6,11,12a-octahydrotetracene-2-carboxamide] | 1.28 log10 CFU | 7.67 ± 0.17 log10 CFU | had bactericidal effect | −0.12 log10 CFU | 6.27 ± 0.41 log10 CFU | −2.04 log10 CFU | 4.35 ± 0.45 log10 CFU | AUC(0-inf) (in vivo; iv): 9110 ng·h/mL; Vd (in vivo; iv): 5 L/kg; clearance (in vivo; iv): 9.33 mL/min/kg; half-life (in vivo; iv): 596 min; AUC(0-inf) (in vivo; po): 2000 ng·h/mL; Cmax (in vivo; po): 199 ng/mL; Tmax (in vivo; po): 1 h; bioavailability (in vivo; po): 22%; bacteria reducing value of each thigh (Staphylococcus aureus [5]; 6 mg/kg/day): 0.12 |
| 0.25 µg/mL (≈ 0.449 µM) | 0.5 µg/mL (≈ 0.898 µM) | 0.5 µg/mL (≈ 0.898 µM) | 0.5 µg/mL (≈ 0.898 µM) | 0.5 µg/mL (≈ 0.898 µM) | 0.5 µg/mL (≈ 0.898 µM) | 4 µg/mL (≈ 7.19 µM) | 8 µg/mL (≈ 14.4 µM) | 2 µg/mL (≈ 3.59 µM) | 2 µg/mL (≈ 3.59 µM) | 8 µg/mL (≈ 14.4 µM) | 4 µg/mL (≈ 7.19 µM) | 1 µg/mL (≈ 1.8 µM) | CN(C)c1cc(CNCC(C)(C)C)c(O)c2c1C[C@H]1C[C@H]3[C@H](N(C)C)C(O)=C(C(N)=O)C(=O)[C@@]3(O)C(O)=C1C2=O [PTK-0796, reference compound] | 1.77 log10 CFU | 8.16 ± 0.13 log10 CFU | did not show bactericidal effect | 1.20 log10 CFU | 7.59 ± 0.21 log10 CFU | −1.05 log10 CFU | 5.34 ± 0.79 log10 CFU | MIC [6]: 0.5 µg/mL (≈ 0.898 µM); MIC (Acinetobacter baumannii; Table 2, agar dilution, read-out: antibacterial activity MIC, Acinetbacter baumannii): 2 µg/mL (≈ 3.59 µM); MIC (Streptococcus pyogenes): 0.25 µg/mL (≈ 0.449 µM); MIC ([4]; Table 2, agar dilution): 0.5 µg/mL (≈ 0.898 µM); MIC (Klebsiella pneumoniae; Table 2): 4 µg/mL (≈ 7.19 µM); MIC (Escherichia coli; Table 2): 1 µg/mL (≈ 1.8 µM); bacteria growing values of each thigh (Staphylococcus aureus [5]; 6 mg/kg/day): 1.20 |
